One assay relates to E. coli (ATCC25922). The experiment in a line: Photobactericidal activity, CFU count, E. coli. Particulars: 20 min ambient light (LED); concentration matched to absorption of 8 mg/L CNC-AA.
A further assay relates to P. aeruginosa biofilms. Further details: dose or concentration left out as unconfirmed. As to conditions: combined with laser irradiation at specific wavelengths; cited from earlier work.

Procedure for E. coli (ATCC25922): In the experimental set-up, the viability of bacteria as a response to intensity of white light exposure and concentration of disinfectant was monitored. This was carried out by calculating the number of bacterial colonies present in solution before and after exposure.
According to the experimental protocol, a suspension of cells (2.6×10^8 cells/ml ±0.5 log) was treated with either AA, CNC or CNC+AA or CNC-AA or PBS (untreated control) at different concentration (FIGS. 7-9). For each set of conditions, the initial culture was equally divided into two. One part was light treated while the other was kept in the dark. After different time periods (FIGS. 7-9), bactericidal activity was quantified by counting colony forming units (CFU) on agar plates. […] Comparison of the number of CFUs in the treated samples (AA, CNC, CNC+AA and CNC-AA) to untreated (PBS) placed under light, enabled the inventors to quantify the specific photo-bactericidal activity of the test agents. Killing effect was calculated using the following expression (equation 2).
Killing=Log 10(#CFUUntreated)−Log 10(CFUtreated) (2)

As for `CN(C)c1ccc2nc3ccc(N)cc3[s+]c2c1.[Cl-]` [AA, azure A], in the assay on E. coli (ATCC25922), the “toxicity against E. coli” value is given as “significantly reduced compared to CNC-AA”.
As for `CN(C)c1ccc2nc3ccc(=[N+](C)C)cc-3sc2c1` [methylene blue], the “concentration necessary to eradicate P. aeruginosa biofilms” value in the assay on P. aeruginosa biofilms is on record as 0.01 % wt/wt.

The values above are taken from patent publication US20220273813A1, “PHOTOSENSITIZER-CONJUGATED ANTIMICROBIAL CELLULOSE NANOCRYSTALS AND METHODS OF SYNTHESIZING AND USING SAME” (HNU MATERIALS INC., priority 2019, published 2022).
